Measured values taken from patent publication US8076338B2, “Kinase modulators and methods of use” (Exelixis, Inc., priority 2004, dated 2011).
Like-named read-outs stand apart in the source and are kept apart here.

Key:
p70S6K = p70S6K (Homo sapiens, UniProt P23443); experiment: Luciferase-coupled chemiluminescence kinase assay (ATP consumption); format: biochemical
How it was run: (§1)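 Enzyme at 2.5-5 nM was preincubated 30 min at room temperature with compound in Tris pH 7.5, MgCl2, TX-100, DTT, then reacted with ATP for 3 h at ambient temperature. Remaining ATP was quantified by luciferase-luciferin chemiluminescence, with consumption kept at 25-60%; […].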

AktK = AktK (Homo sapiens, UniProt P31749); experiment: as above; format: biochemical; conditions: read-out: AKT-1 IC50
AktK, sequence (P31749 whole entry): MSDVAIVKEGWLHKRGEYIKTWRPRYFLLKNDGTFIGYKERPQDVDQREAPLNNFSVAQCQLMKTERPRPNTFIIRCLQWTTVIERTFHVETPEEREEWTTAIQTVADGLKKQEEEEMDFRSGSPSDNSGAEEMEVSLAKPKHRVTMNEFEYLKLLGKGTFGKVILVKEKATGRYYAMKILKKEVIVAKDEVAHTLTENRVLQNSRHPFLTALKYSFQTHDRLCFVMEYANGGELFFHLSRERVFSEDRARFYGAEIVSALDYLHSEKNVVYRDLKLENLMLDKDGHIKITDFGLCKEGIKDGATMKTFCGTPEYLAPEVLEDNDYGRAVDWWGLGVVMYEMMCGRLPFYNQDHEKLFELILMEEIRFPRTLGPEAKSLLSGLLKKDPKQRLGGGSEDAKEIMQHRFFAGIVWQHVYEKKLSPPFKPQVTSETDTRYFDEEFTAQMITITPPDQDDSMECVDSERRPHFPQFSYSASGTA
How it was run: as §1

p70S6K, sequence (P23443 whole entry): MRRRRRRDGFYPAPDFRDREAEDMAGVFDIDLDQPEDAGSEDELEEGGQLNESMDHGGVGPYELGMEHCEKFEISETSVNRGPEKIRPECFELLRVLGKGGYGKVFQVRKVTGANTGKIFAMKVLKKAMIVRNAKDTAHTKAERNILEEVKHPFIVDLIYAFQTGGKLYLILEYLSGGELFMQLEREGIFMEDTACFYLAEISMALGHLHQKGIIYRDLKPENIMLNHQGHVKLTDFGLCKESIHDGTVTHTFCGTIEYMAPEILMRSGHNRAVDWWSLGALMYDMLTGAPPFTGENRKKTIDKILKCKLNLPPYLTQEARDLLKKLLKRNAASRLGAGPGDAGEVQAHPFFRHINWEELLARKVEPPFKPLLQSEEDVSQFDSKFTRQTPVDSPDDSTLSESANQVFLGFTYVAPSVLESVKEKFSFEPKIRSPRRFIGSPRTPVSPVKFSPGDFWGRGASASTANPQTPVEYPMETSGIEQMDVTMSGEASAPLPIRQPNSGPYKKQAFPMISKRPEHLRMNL

CCc1n[nH]c2ncnc(N3CCN(c4cccc(Cl)c4)C(C(=O)NCCN(C)C)C3)c12 (stereo not shown) [Entry 360, 1-(3-chlorophenyl)-N-[2-(dimethylamino)ethyl]-4-(3-ethyl-1H-pyrazolo[3,4-d]pyrimidin-4-yl)piperazine-2-carboxamide]
IC50 (p70S6K): 1000 to 10000 nM | IC50 (AktK): 1000 to 10000 nM

CCc1n[nH]c2ncnc(N3CCN(c4cc(Cl)cc(N5CCOCC5)c4C)CC3)c12 [Entry 361, 4-[4-(5-chloro-2-methyl-3-morpholin-4-ylphenyl)piperazin-1-yl]-3-ethyl-1H-pyrazolo[3,4-d]pyrimidine]
IC50 (p70S6K): 100 to 1000 nM | IC50 (AktK): 1000 to 10000 nM

Cc1c(CCCN2CCN(C)CC2)cc(Cl)cc1N1CCN(c2ncnc3[nH]nc(C(F)(F)F)c23)CC1 [Entry 92, 4-(4-{5-chloro-2-methyl-3-[3-(4-methylpiperazin-1-yl)propyl]phenyl}piperazin-1-yl)-3-(trifluoro-methyl)-1H-pyrazolo[3,4-d]pyrimidine]
IC50 (p70S6K; Table 1, class symbols per key): < 100 nM | IC50 (AktK; Table 1, class symbols per key): 100 to 1000 nM

Cc1ccc(C(=O)Nc2ccccc2)cc1N1CCN(c2ncnc3[nH]nc(Br)c23)CC1=O [Entry 199, 3-[4-(3-bromo-1H-pyrazolo[3,4-d]pyrimidin-4-yl)-2-oxopiperazin-1-yl]-4-methyl-N-phenylbenzamide]
IC50 (p70S6K; Table 1, class symbols per key): < 100 nM | IC50 (AktK; Table 1, class symbols per key): 1000 to 10000 nM

Clc1cc(Cl)cc(N2CCN(c3ncnc4[nH]nc(Br)c34)CC2)c1 [Entry 128, 3-bromo-4-[4-(3,5-dichlorophenyl)piperazin-1-yl]-1H-pyrazolo[3,4-d]pyrimidine]
IC50 (p70S6K; Table 1, class symbols per key): 100 to 1000 nM | IC50 (AktK; Table 1, class symbols per key): ≥ 10000 nM

Cc1c(NCCN(C)C)cc(OCC(C)C)cc1N1CCN(c2ncnc3[nH]nc(Br)c23)CC1 [Entry 195, N′-{3-[4-(3-bromo-1H-pyrazolo[3,4-d]pyrimidin-4-yl)piperazin-1-yl]-2-methyl-5-[(2-methylpropyl)ox-y]phenyl}-N,N-dimethylethane-1,2-diamine]
IC50 (p70S6K; Table 1, class symbols per key): < 100 nM | IC50 (AktK; Table 1, class symbols per key): < 100 nM

COc1ccc(N2CCN(c3ncnc4[nH]ccc34)CC2)cc1 [Entry 304, 4-{4-[4-(methyloxy)phenyl]piperazin-1-yl}-7H-pyrrolo[2,3-d]pyrimidine]
IC50 (p70S6K): 1000 to 10000 nM | IC50 (AktK): ≥ 10000 nM

Cc1c(OCCCN2CCCCC2)cc(Cl)cc1N1CCN(c2ncnc3[nH]nc(Br)c23)CC1 [Entry 37, 3-bromo-4-(4-{5-chloro-2-methyl-3-[(3-piperidin-1-ylpropyl)oxy]phenyl}piperazin-1-yl)-1H-pyrazolo[3,4-d]pyrimidine]
IC50 (p70S6K; Table 1, class symbols per key): < 100 nM | IC50 (AktK; Table 1, class symbols per key): 100 to 1000 nM
